Test results: ChEMBL document CHEMBL3991601, “The target landscape of clinical kinase drugs” (Science, 2017)
Calls of active or inactive are those of the source. Rule as the data show it: actives have a measured Kd and inactives only a lower limit.

target: T1, Uncharacterized protein FLJ45252 (Homo sapiens, UniProt Q6ZSR9); settings: read-out: Kd apparent; k-562, colo 205, sk-n-be(2) and mv-4-11
T1 sequence (Q6ZSR9 whole entry): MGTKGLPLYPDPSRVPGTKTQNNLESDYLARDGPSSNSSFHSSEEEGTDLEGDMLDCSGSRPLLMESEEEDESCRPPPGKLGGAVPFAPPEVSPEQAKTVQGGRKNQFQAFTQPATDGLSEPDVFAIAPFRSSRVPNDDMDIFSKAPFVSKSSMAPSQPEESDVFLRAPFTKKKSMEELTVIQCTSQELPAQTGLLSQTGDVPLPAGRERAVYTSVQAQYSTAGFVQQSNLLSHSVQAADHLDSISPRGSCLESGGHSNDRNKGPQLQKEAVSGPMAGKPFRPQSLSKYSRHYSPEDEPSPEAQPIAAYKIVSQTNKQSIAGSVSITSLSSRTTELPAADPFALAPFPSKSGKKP
Also: in the data inactive means no Kd found up to 30 µM.

Kd | SMILES
3.01 µM (active) | Nc1nc(N)c2nc(-c3cccc(O)c3)c(-c3cccc(O)c3)nc2n1 [TG100-115]
> 30 µM (inactive) | CCn1c(-c2nonc2N)nc2c(C#CC(C)(C)O)ncc(OC[C@H]3CCCNC3)c21 [GSK-690693]
0.104 µM (active) | CN1CCN(c2ccc3nc(-c4c(N)c5c(F)cccc5[nH]c4=O)[nH]c3c2)CC1 [DOVITINIB]

SMILES | Kd
Cc1cn(-c2cc(NC(=O)c3ccc(C)c(Nc4nccc(-c5cccnc5)n4)c3)cc(C(F)(F)F)c2)cn1 [NILOTINIB] | > 30 µM (inactive)
